From US20090275514A1, “USE OF CALMODULIN KINASE II INHIBITORS TO TREAT OR PREVENT HEART MUSCLE INFLAMMATION” (priority 2008, published 2009) come the findings set out here.

For assay [1], the system named is Cfb expression in neonatal cardiomyocytes. Nature of the assay: LPS-induced Cfb expression in cultured neonatal cardiomyocytes (qRT-PCR). It is filed as cell-based, mouse. The method, then: (§1) All animal experiments were done in compliance with the “Guiding Principles for the Care and Use of Laboratory Animals.” Mouse neonatal cardiac myocytes were isolated from 1 to 3-day-old newborn B6D2/F1 mice according to an established protocol. Hearts were dissected and incubated with F-10 nutrient medium, containing 140 μg/ml of collagenase type-2 (Sigma) and 440 μg/ml pancreatin (Sigma) until cells were dissociated. The cells were then washed, resuspended in 1:1 mix of Dulbecco's minimal Eagle's medium (DMEM) and F10 nutrient mix with 5% each of equine and bovine calf serum. These cells were pre-plated in tissue culture dishes for 1 h to allow for attachment of nonmyocytes. The resulting non-adherent myocytes were plated on fibronectin-coated (Sigma) tissue culture dishes. […]
(§2) Total RNA was isolated from mouse heart, liver, isolated adult cardiomyocytes, or cultured neonatal cardiomyocytes using Qiagen RNA isolation kit. RNA samples were quantified by determining A260 in capillary cuvettes (Gene Machine, Pharmacia). […]
(§3) For SYBR Green quantitative real-time PCR, 1 μl of reverse transcription reaction was mixed with 10 pmoles each specific primer and 12.5 μl SYBR PCR Master Mix (BioRad). […] The threshold cycle (CT) was determined by the icycler software, and quantification of relative mRNA levels was performed by ΔΔCT method.

The test system is the same in assay [2]. Nature of the assay: TNFα-induced Cfb expression in cultured neonatal cardiomyocytes (qRT-PCR). It is filed as cell-based, mouse. Particulars: RNA after 12 h. The protocol: as §1, §2, §3
The test system of assay [3] is CFB protein in infarcted hearts. Briefly: CFB protein in hearts after myocardial infarction (immunoblotting). It is filed as in vivo, mouse. Particulars: one week following MI; transgenic hearts compared to WT. The protocol:
(§4) Mouse hearts were infarcted by opening the thoracic cavity and placing a ligature on the left descending coronary artery, as described (3). Both male and female mice were infracted, and three-week post-infarction, RNA was isolated from cardiac tissue using RNeasy kit (Qiagen). Hearts were harvested one week after MI surgery for protein studies. Gene expression profiles of pooled RNA from at least five hearts of each gender were determined from cDNA microarrays containing 8600 elements derived from clones isolated from normalized cDNA libraries or purchased from ResGen (Invitrogen) as described previously (52). Differential expression values were calculated as the ratio of the median of background-subtracted fluorescent intensity of the experimental RNA to the median of background-subtracted fluorescent intensity of the control RNA. […] For the analyses, the results from both genders were compiled.
Tissue samples were homogenized in modified RIPA buffer (50 mM Hepes, pH 7.5; 150 mM NaCl; 5 mM EDTA; 1% v/v NP-40 and 0.5% w/v deoxycholate) containing mixture of protease and phosphatase inhibitors. […] Protein bands were detected using ECL reagent (Lumi-Light, Roche), and loading was routinely monitored by Coomassie staining of the blots after antibody probing. For quantification, QuantityOne software (BioRad) was used.

In assay [4] the test system is gene expression in infarcted hearts. Briefly: cDNA microarray of infarcted hearts (CaMKII-regulated genes). Particulars: three weeks after MI; compared to infarcted AC3-C hearts; 8,600 genes on array. It is filed as in vivo, mouse. The method, then:
as §4

Where [5] appears, read: neonatal cardiomyocytes from transgenic mice, compared to WT cells.

For “AC3-I: CaMKII-inhibitory peptide of SEQ ID NO:16, transgenically expressed in cardiomyocytes (KKALHRQEAVDCL)”, the “induction of Cfb mRNA by LPS in cardiomyocytes expressing the peptide” value in assay [1] (setting [5]) is listed as “strong attenuation of Cfb induction”. Further, the “induction of Cfb by TNFα in cardiomyocytes expressing the peptide” value in assay [2] (setting [5]) is listed as “significantly lower”. In assay [3], the “CFB protein in heart after MI” value is listed as “Significantly reduced CFB protein”. Also, in assay [4], the “number of genes with reduced expression in infarcted hearts” value came to 88 genes.

Turning to `COc1ccc(S(=O)(=O)N(CCO)c2ccccc2CN(C)CC=Cc2ccc(Cl)cc2)cc1` [KN-93], the “induction of Cfb mRNA by LPS” value in assay [1] (WT neonatal cardiomyocytes, water-soluble KN-93 (2.5 μM) added an hour prior to LPS 10 μg/ml, RNA after 12 h) was “significantly (P<0.001) attenuated induction of Cfb mRNA”. The “induction of Cfb expression by TNFα” value in assay [2] (neonatal cardiomyocytes, TNFα (100 pg/ml) with water-soluble KN-93 (2.5 μM)) was “significantly blunted”.
